Measured values from PMC7910904, “Improving the Antioxidant Properties of Calophyllum inophyllum Seed Oil from French Polynesia: Development and Biological Applications of Resinous Ethanol-Soluble Extracts” (Antioxidants, 2021).

Target: T1, proteinase K (PTA) (Parengyodontium album, UniProt P06873)
T1 construct: purchased Sigma-Aldrich
Experiment: Proteinase inhibitory activity
Type: biochemical
Details: compounds at 150 µg/mL
Method: Anti-inflammatory properties of the extracts were evaluated by their proteinase and lipoxygenase inhibitory activities as described. Briefly, PTA (0.06 mg) was dissolved in 2 mL of Tris HCl buffer (20 mM, pH 7.4) containing a suspension of each extract (100–600 µg/mL). The mixture was incubated at 37 °C for 5 min, and 1 mL of 4% BSA was added. Incubation was prolonged for 20 min, and afterwards 2 mL of 5% trichloroacetic acid was added to the mixture. After centrifugation (3000 rpm, 10 min, 4 °C) the absorbance was read at 210 nm against buffer as blank, and the percentage of proteinase inhibition activity was calculated. Experiments were performed in triplicate and averaged. The anti-inflammatory drug diclofenac (100–300 µg/mL) was used as a standard for comparison.

T1 sequence (P06873 106-384): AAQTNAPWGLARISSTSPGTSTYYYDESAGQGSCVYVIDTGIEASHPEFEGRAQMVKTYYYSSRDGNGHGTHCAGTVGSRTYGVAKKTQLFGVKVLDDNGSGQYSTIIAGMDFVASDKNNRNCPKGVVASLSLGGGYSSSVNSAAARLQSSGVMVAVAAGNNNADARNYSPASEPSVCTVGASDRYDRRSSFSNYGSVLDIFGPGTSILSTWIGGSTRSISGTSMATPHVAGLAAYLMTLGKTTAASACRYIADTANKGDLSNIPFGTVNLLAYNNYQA

For O=C(O)Cc1ccccc1Nc1c(Cl)cccc1Cl [Diclofenac], the inhibition at 150 µg/mL was 64 ± 2%.
